# Experiments:
# [1] = target: T1, binding between ZIKV EDIII and EDIII-specific mAb ZKA64-LALA (Zika virus, UniProt Q32ZE1, D679E/I627V/V603I/V629A); details: ELISA; EDIII 1.5 μg/ml, mAb 0.5 μg/ml; read-out: IC50, blocking EDIII-mAb binding, ZKA64-LALA
# T1 construct: human Fc (C)
# Protocol: (§1) Binding of compounds (NPs) to ZIKV full-length E (FIG. 3A), EDIII (FIG. 3B), and NS2B-NS3 (FIG. 3C) proteins, was detected by ELISA. The percent binding was reported in the presence or absence of serially diluted NPs using the formula (1-[E/EDIII-NP]/[E/EDIII])×100 (for E/EDIII binding) or (1-[NS2B-NS3-NP]/[NS2B-NS3])×100 (for NSEB-NS3 binding). […] The concentrations of ZIKV EDIII and mAbs were 1.5 and 0.5 μg/ml, respectively. […] The concentrations of substrate (Bz-Nle-Lys-Lys-Arg-AMC) and ZIKV NS2B-NS3 protein were 4 μM and 1 μg/ml, respectively. The percent inhibition of protease activity was calculated in the presence or absence of serially diluted compounds using the formula (1-[NS2B-NS3-substrate-NP]/[NS2B-NS3-substrate])×100. The IC50 values were calculated based on the percent inhibition. The data are expressed as mean±s.e.m. (n=4).
# (§2) ELISA was also used to determine the ability of ST087010 in inhibition of the binding between ZIKV EDIII and EDIII-specific human mAbs (SMZAb5, ZKA64-LALA, ZV-67, or Z004) or EDI/II-specific human mAb (ZKA78) control.
# [2] = target: T2, binding between ZIKV EDIII and EDIII-specific mAb SMZAb5 (Zika virus, UniProt Q32ZE1, D679E/I627V/V603I/V629A); details: ELISA; EDIII 1.5 μg/ml, mAb 0.5 μg/ml; read-out: IC50, blocking EDIII-mAb binding, SMZAb5
# T2 construct: human Fc (C)
# T2 sequence (Q32ZE1 584-695 V603I/I627V/V629A/D679E): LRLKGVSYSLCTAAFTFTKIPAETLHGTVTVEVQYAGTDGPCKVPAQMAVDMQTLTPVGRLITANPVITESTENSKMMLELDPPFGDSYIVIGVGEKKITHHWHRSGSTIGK
# Protocol: as §1, §2
# [3] = target: T3, binding between ZIKV EDIII and EDIII-specific mAb ZV-67 (Zika virus, UniProt Q32ZE1, D679E/I627V/V603I/V629A); details: ELISA; EDIII 1.5 μg/ml, mAb 0.5 μg/ml; read-out: IC50, blocking EDIII-mAb binding, ZV-67
# T3 construct: human Fc (C)
# T3 sequence (Q32ZE1 584-695 V603I/I627V/V629A/D679E): as above
# Protocol: as §1, §2
# [4] = target: T4, binding between ZIKV EDIII and EDIII-specific mAb Z004 (Zika virus, UniProt Q32ZE1, D679E/I627V/V603I/V629A); details: ELISA; EDIII 1.5 μg/ml, mAb 0.5 μg/ml; read-out: IC50, blocking EDIII-mAb binding, Z004
# T4 construct: human Fc (C)
# T4 sequence (Q32ZE1 584-695 V603I/I627V/V629A/D679E): as above
# Protocol: as §1, §2
# [5] = system: ZIKV human strain PAN2016; experiment: ZIKV PAN2016 infection of Ifnar1-/- mice: tissue viral titers, immunofluorescence; type: in vivo; details: 20 mg/kg i.p., 5 dpi
# Text: FIG. 8A is a schematic diagram of experimental procedures. […] The treated mice were infected with ZIKV human strain R103451 (200 plaque forming unit (PFU)/mouse), followed by evaluation of survival rate (FIG. 8B) or weight changes (FIG. 8C) for 21 days. The data are expressed as mean±s.e.m. of mice in each group (n=6). In a separate experiment, ST087010 or gossypol-treated mice were infected with ZIKV human strain PAN2016 (200, PFU/mouse). Five days post-infection (dpi), viral titers were detected in tissues by plaque assay (FIG. 8D), and ZIKV or caspase-3 signals were measured in eye (FIG. 8E) and testis ([…]) tissues by immunofluorescence staining. The data are expressed as mean±s.e.m. of mice in each group (n=5), and significant differences among different groups are shown as *, **, and ***. The detection limit is 25 PFU/g. ZIKV and caspase-3 (in FIG. 8E-F) were stained with anti-ZIKV and anti-active caspase-3 antibodies, respectively. Nuclei were stained with DAPI (40,6-diamidino-2-phenylindole). Representative images of immunofluorescence staining are shown. Magnification, 63×, and scale bar, 10 μm.
# ST087010 was evaluated for protection against ZIKV infection in ZIKV-susceptible Ifnar1^−/− mice. Briefly, 7-8-week-old male mice were used, and two separate experiments were performed. […] These mice were infected by i.p. injection with ZIKV (human strain R103451, 200 PFU/mouse), and observed daily for weight changes and survival until 21 days post-infection (dpi). […]
# Plaque assay was used to detect viral titers in ZIKV-infected tissues. […] ZIKV titers in tissues were measured from ˜40 mg of samples, and thus the detection limit is about 25 PFU/g of tissues.
# Immunofluorescence staining was carried out to detect ZIKV and caspase-3 signals in ZIKV-infected mouse tissues. […] The slides were analyzed using a confocal microscope (Zeiss LSM 880) and ZEN software, and fluorescent signals were quantified by ImageJ software. […]
# T1 sequence (Q32ZE1 584-695 V603I/I627V/V629A/D679E): as above
smiles,measurement,setting,value
Cc1cc2c(C(C)C)c(O)c(O)c(/C=N/n3c(=O)[nH][nH]c3=O)c2c(O)c1-c1c(C)cc2c(C(C)C)c(O)c(O)c(/C=N/n3c(=O)[nH][nH]c3=O)c2c1O [ST087010],IC50,[1],4.17 µM
same,IC50,[2],5.72 µM
same,IC50,[3],6.7 µM
same,IC50,[4],44.5 µM
same,Viral titers in tissues (plaque assay),"[5]; ZIKV PAN2016 200 PFU/mouse, heart, testis, eye, kidney, brain",significantly reduced viral titers
same,ZIKV+ signals in eye and testis tissues,"[5]; ZIKV PAN2016, immunofluorescence",undetectable
same,Caspase-3 staining in eye and testis tissues,"[5]; ZIKV PAN2016, immunofluorescence, vs DMSO",undetectable or diminished staining
